One assay deals with BE(1)N. The experiment in a line: Silvestrol in neuroblastoma cell lines in vitro: BE(1)N. Type of assay: cell-based. Particulars: BE(1)N cells, N-MYC. How it is done: (§1) The effect of silvestrol on several neuroblastoma cell lines was evaluated.
For assay [1], the system named is KOPTK1 cells. The experiment in a line: Polysome profiling. Type of assay: cell-based, human. The settings on record: 25 nM, 45 minutes. As to the method:
Polysome profiling. KOPTK1 cells were treated with silvestrol or DMSO for 45 minutes, followed by cycloheximide treatment for 10 minutes. Cell pellet was lysed in polysome lysis buffer (300 mM NaCl, 15 mM Tris-HCl (pH 7.5), 15 mM MgCl2, 1% TritonX-100, 0.1 mg/ml Cycloheximide, 1 mg/ml Heparin). Polysome fractions were isolated using 4 ml 10-50% sucrose density gradients (300 mM NaCl, 100 mM MgCl2, 15 mM Tris-HCl (pH 7.5), 1 mg/ml Cycloheximide, 10 mg/ml Heparin). Gradients were centrifuged in an SW40Ti rotor at 35,000 rpm for 2 hrs. Fractions of 100 ul were collected manually from the top, and optical density (OD) at […] was measured.
FIG. 10 depicts ribosome profiling quality control data and effects on translation. A and B) Read counts by length of mapped sequence before and after filtering rRNA, linker reads, non-coding RNAs, short mapped sequences (“noisy” reads; see text and method for details). C and D) Read length frequency histograms and mapping analysis of ribosome footprint data after quality control filtering for vehicle treated cells (C) or silvestrol treated cells (D). […] F) Histogram of all genes' ribosome footprint intensity (measured as unique read number per million per gene, RPM) for silvestrol and vehicle treated cells indicating silvestrol affected mRNAs were broadly distributed (see text for details). […]

Another assay concerns BE(2)C. The experiment in a line: Silvestrol in neuroblastoma cell lines in vitro: BE(2)C. Type of assay: cell-based. Particulars: Homo sapiens; BE(2)C cells, N-MYC. How it is done:
as §1

Assay [2] concerns KOPTK1 cells. The assay is described as follows: Metabolic labeling of nascent protein with L-azidohomoalanine (AHA). Particulars: 25 nM; p vs. vehicle 3.6×10−3. Type of assay: cell-based, human. As to the method:
(Non-radioactive) Metabolic labeling of nascent protein. KOPTK1 cells were labeled for nascent protein synthesis using Click-iTR AHA (L-azidohomoalanine) metabolic labeling reagent obtained from Invitrogen (cat no. C10102) as per manufacturer's instructions. Briefly, following silvestrol, Cycloheximide or DMSO treated cells were incubated in methionine free medium for 30 min prior to AHA labeling for 1 hr. Cells were fixed with 4% paraformaldehyde in PBS for 15 min, permeablized with 0.25% Triton X-100 in PBS for 15 min followed by one wash with 3% BSA. Cells were then stained using Alexa Fluor 488 Alkyne (Invitrogen cat no. A10267) with Click-iT Cell reaction Buffer Kit (Invitrogen cat no. C10269). Changes in mean fluorescence intensity as a measure of newly synthesized protein was detected by Flow cytometry analysis.
The number of ribosomes occupying a given transcript is given as gene specific RF reads per one million total reads (RPM).
FIG. 10 depicts ribosome profiling quality control data and effects on translation. A and B) Read counts by length of mapped sequence before and after filtering rRNA, linker reads, non-coding RNAs, short mapped sequences (“noisy” reads; see text and method for details). C and D) Read length frequency histograms and mapping analysis of ribosome footprint data after quality control filtering for vehicle treated cells (C) or silvestrol treated cells (D). […]

For `COC(=O)[C@H]1[C@@H](O)[C@@]2(O)c3c(OC)cc(O[C@@H]4O[C@@H]([C@H](O)CO)CO[C@H]4OC)cc3O[C@@]2(c2ccc(OC)cc2)[C@@H]1c1ccccc1` [silvestrol], the values for the IC50 in the assay on BE(1)N and in the assay on BE(2)C were 2.52 nM and 47.8 nM, respectively. In the assay on KOPTK1 cells [1], the “polyribosome bound RNA (fractions 30-40)” value was “loss of polyribosome bound RNA”. Also, the “max. reduction of nascent protein synthesis (AHA labeling)” value in the assay on KOPTK1 cells [2] was about 60%.

The term IC50 denotes the concentration at which inhibition is half-maximal.

The values above are taken from patent US20150219624A1, “METHODS FOR IDENTIFYING ANTI-CANCER COMPOUNDS” (MEMORIAL SLOAN KETTERING CANCER CENTER, priority 2013, published 2015).
